B1: Caulobacter crescentus CpaF (Tad pilus motor ATPase) (enzyme, Caulobacter crescentus NA1000, UniProt Q9L714 1-501, looked up)
chain: MFGKRDSSASGDPKAPPPAPAGGATIATRPQRVEPVAAPEPKAPAPKVSGPAPKPTVGLEQLRAAQGQPQTANIVREQSDYYHATKTTIFNALLNTIDLSQLAQLDLKQAGEEIRDIVAELVAIKNVSMSVAEQEHLVQDIINDVLGYGPLEPLLARDDIADIMVNGAHRVFIEVGGKVQLTNVRFRDNLQLMNICQRIVSQVGRRVDESSPICDARLPDGSRVNVIAPPLALDGPTLTIRKFKKDKLTMKNLVEFASISPEGARVLGVIGACRCNLVISGGTGSGKTTLLNTMTAFIDPTERVVTCEDAAELQLQQPHVVRLETRPPNLEGSGAVTMRDLVKNCLRMRPERIIVGEVRGPEAFDLLQAMNTGHDGSMGTLHANSPREAISRIESMITMGGYGLPSKTIKEMIVGSVDVIIQAARLRDGSRRITHITEVVGLEGDVIVTQDLFVYEITGEDEHGKVVGKHRSTGIARPRFWDRARYYGLERELAEALDAAE
notes: CpaF, Caulobacter crescentus NA1000, cloned from genomic DNA into pET28a; 501 residues (IDR 1-79, 3HB 80-146, NTD-CAD 147-501); residues 80-501 are modelled in the maps, the IDR is not resolved; Hexamer with C2 symmetry in all five cryo-EM structures; the construct was cloned from strain NA1000; also called WT CpaF; full length CpaF; source: E. coli Rosetta 2, purified (Ni-NTA, Superose 6 SEC)

What was measured:
CpaF = molecular target: T1, CpaF (Caulobacter vibrioides, UniProt Q9L714, K287A); test: enzyme-coupled ATPase assay (pyruvate kinase / lactate dehydrogenase, NADH at […] nm); format: biochemical; conditions: 1 mM ATP, 1 mM MgCl2, pH 8.0, 30 °C; Walker A mutant
T1 construct: full length (501 residues), N-terminal His6 tag (pET28a), tag removal not described, E. coli Rosetta 2; homohexamer; residues 80-501 modelled
T1 sequence (Q9L714 entry or part of it K287A): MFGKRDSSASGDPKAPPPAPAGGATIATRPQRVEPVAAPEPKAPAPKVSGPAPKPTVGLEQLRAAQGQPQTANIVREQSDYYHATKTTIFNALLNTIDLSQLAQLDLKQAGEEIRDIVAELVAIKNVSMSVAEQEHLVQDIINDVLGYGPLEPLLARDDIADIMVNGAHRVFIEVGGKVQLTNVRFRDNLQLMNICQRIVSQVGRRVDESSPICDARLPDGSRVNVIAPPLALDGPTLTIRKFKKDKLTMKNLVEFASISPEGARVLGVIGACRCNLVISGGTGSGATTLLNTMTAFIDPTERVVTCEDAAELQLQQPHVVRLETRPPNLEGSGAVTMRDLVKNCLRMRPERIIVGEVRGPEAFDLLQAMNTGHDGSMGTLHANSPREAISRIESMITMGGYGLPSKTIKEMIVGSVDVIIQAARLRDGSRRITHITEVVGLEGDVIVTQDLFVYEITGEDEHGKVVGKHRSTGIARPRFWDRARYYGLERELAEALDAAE

CpaF^66-501 = molecular target: T2, CpaF^66-501 (Caulobacter vibrioides, UniProt Q9L714); test: as above; format: biochemical; conditions: 1 mM ATP, 1 mM MgCl2, pH 8.0, 30 °C
T2 construct: IDR truncation, residues 66-501, N-terminal His6 tag (pET28a), E. coli Rosetta 2

CpaF^80-501 = molecular target: T3, CpaF^80-501 (Caulobacter vibrioides, UniProt Q9L714); test: as above; format: biochemical; conditions: 1 mM ATP, 1 mM MgCl2, pH 8.0, 30 °C
T3 construct: IDR truncation, residues 80-501 (whole IDR removed), N-terminal His6 tag (pET28a), E. coli Rosetta 2

CpaF^73-501 = molecular target: T4, CpaF^73-501 (Caulobacter vibrioides, UniProt Q9L714); test: as above; format: biochemical; conditions: 1 mM ATP, 1 mM MgCl2, pH 8.0, 30 °C
T4 construct: IDR truncation, residues 73-501, N-terminal His6 tag (pET28a), E. coli Rosetta 2

[1] = molecular target: the molecule itself; test: cryo-EM structure; purified CpaF, 5 mg/mL, 50 mM HEPES pH 8.0, 200 mM NaCl, 1 mM TCEP, 0.05% CHAPS; three samples: no added nucleotide, 50 uM equimolar ATP/ADP/MgCl2, 1 mM ATP/MgCl2; C2-symmetric hexamers (closed, compact, expanded)

| Molecule | ATPase activity (CpaF) | ATPase activity (CpaF^66-501) | ATPase activity (CpaF^80-501) | ATPase activity (CpaF^73-501) | stoichiometry N [1] |
| --- | --- | --- | --- | --- | --- |
| Nc1ncnc2c1ncn2[C@@H]1O[C@H](COP(=O)(O)OP(=O)(O)OP(=O)(O)O)[C@@H](O)[C@H]1O [ATP] | IDR truncation does not abrogate enzyme activity while a Walker A motif point mutant CpaF^K287A does | Enzyme-coupled ATPase assays revealed that IDR truncation does not abrogate enzyme activity | Enzyme-coupled ATPase assays revealed that IDR truncation does not abrogate enzyme activity | Enzyme-coupled ATPase assays revealed that IDR truncation does not abrogate enzyme activity |  |
| B1 |  |  |  |  | 6 |
